From US8802597B2, “Herbicidal pyrimidines” (E I du Pont de Nemours and Company, priority 2003, dated 2014)
Read-outs that look alike come from different tables or passages of the source.

How the values were obtained:
Type in all cases: in vivo
[1] = test system: bermudagrass (Cynodon dactylon); assay: Test C pre/postemergence; conditions: for pest or weed control at 62 g/ha / pest or weed control at 125 g/ha / pest or weed control at 250 g/ha / pest or weed control at 500 g/ha: Cynodon dactylon
Method in brief: (§1)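 Rating scale 0–100: 0 means no effect, 100 complete control; taken visually 12 to 14 days post-treatment versus controls. Pre- and postemergence greenhouse applications, postemergence at 1- to 4-leaf stage, non-phytotoxic solvent with surfactant as carrier.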

[2] = test system: eastern black nightshade (Solanum ptycanthum); assay: Test C pre/postemergence; conditions: Preemergence; for pest or weed control at 62 g/ha / pest or weed control at 125 g/ha / pest or weed control at 250 g/ha / pest or weed control at 500 g/ha: Solanum, pre-emergence, read-out: Plant response rating, Nightshade
Method in brief: as §1

[3] = test system: common ragweed (Ambrosia elatior); assay: Test C pre/postemergence; conditions: for pest or weed control at 62 g/ha / pest or weed control at 125 g/ha / pest or weed control at 250 g/ha / pest or weed control at 500 g/ha: Ambrosia artemisiifolia
Method in brief: as §1

[4] = test system: umbrella sedge (Cyperus difformis); assay: Test C flooded paddy test; conditions: Flood, scale 0 to 100
Description: (§2) At the same time, plants selected from these crop and weed species and also winter barley (Hordeum vulgare), blackgrass (Alopecurus myosuroides), canarygrass (Phalaris minor), chickweed (Stellaria media), downy brome (Bromus tectorum), green foxtail (Setaria viridis), Italian ryegrass (Lolium multiflorum), wheat (Triticum aestivum), wild oat (Avena fatua) and windgrass (Apera spica-venti) were treated with postemergence applications of some of the test chemicals formulated in the same manner. Plants ranged in height from 2 to 18 cm (1- to 4-leaf stage) for postemergence treatments. Plant species in the flooded paddy test consisted of rice (Oryza sativa), umbrella sedge (Cyperus difformis), duck salad (Heteranthera limosa) and barnyardgrass (Echinochloa crus-galli) grown to the 2-leaf stage for testing. Treated plants and controls were maintained in a greenhouse for 12 to 14 days, after which time all species were compared to controls and visually evaluated. Plant response ratings, summarized in Table C, are based on a scale of 0 to 100 where 0 is no effect and 100 is complete control. A dash (-) response means no test result.

[5] = test system: barnyardgrass (Echinochloa crus-galli); assay: Test C flooded paddy test; conditions: Flood
Description: as §2

[6] = test system: rice (Oryza sativa); assay: Test C flooded paddy test; conditions: Flood, scale 0 to 100
Description: as §2

[7] = test system: duck salad (Heteranthera limosa); assay: Test C flooded paddy test; conditions: Flood, scale 0 to 100
Description: as §2

[8] = Postemergence, 62 g ai/ha, scale 0 to 100 (0 no effect, 100 complete control)
[9] = Postemergence, 250 g ai/ha, scale 0 to 100
[10] = Postemergence, 500 g ai/ha, scale 0 to 100
[11] = Preemergence, 62 g ai/ha, scale 0 to 100, 0 no effect, 100 complete control
[12] = Preemergence, 125 g ai/ha, scale 0 to 100
[13] = Preemergence, 250 g ai/ha, scale 0 to 100
[14] = Preemergence, 500 g ai/ha, scale 0 to 100
[15] = 62 g ai/ha, scale 0 to 100, 0 no effect, 100 complete control
[16] = 500 g ai/ha, scale 0 to 100 (0 no effect, 100 complete control)
[17] = pre-emergence, Preemergence, 62 g ai/ha, scale 0 to 100, 0 no effect, 100 complete control, read-out: Plant response rating, Bermudagrass
[18] = pre-emergence, Preemergence, 125 g ai/ha, scale 0 to 100, read-out: Plant response rating, Bermudagrass
[19] = pre-emergence, Preemergence, 250 g ai/ha, scale 0 to 100, read-out: Plant response rating, Bermudagrass
[20] = pre-emergence, Preemergence, 500 g ai/ha, scale 0 to 100, read-out: Plant response rating, Bermudagrass
[21] = pre-emergence, Preemergence, 62 g ai/ha, scale 0 to 100, 0 no effect, 100 complete control, read-out: Plant response rating, Ragweed
[22] = pre-emergence, Preemergence, 125 g ai/ha, scale 0 to 100, read-out: Plant response rating, Ragweed
[23] = pre-emergence, Preemergence, 250 g ai/ha, scale 0 to 100, read-out: Plant response rating, Ragweed
[24] = pre-emergence, Preemergence, 500 g ai/ha, scale 0 to 100, read-out: Plant response rating, Ragweed
[25] = post-emergence, Postemergence, 62 g ai/ha, scale 0 to 100 (0 no effect, 100 complete control), read-out: Bermudagrass plant response rating
[26] = post-emergence, Postemergence, 250 g ai/ha, scale 0 to 100, read-out: Plant response rating, Bermudagrass
[27] = post-emergence, Postemergence, 500 g ai/ha, scale 0 to 100, read-out: Plant response rating, Bermudagrass
[28] = post-emergence, Postemergence, 62 g ai/ha, scale 0 to 100 (0 no effect, 100 complete control), read-out: Ragweed plant response rating
[29] = post-emergence, Postemergence, 125 g ai/ha, scale 0 to 100 (0 no effect, 100 complete control), read-out: Ragweed plant response rating
[30] = post-emergence, Postemergence, 250 g ai/ha, scale 0 to 100, read-out: Plant response rating, Ragweed
[31] = post-emergence, Postemergence, 500 g ai/ha, scale 0 to 100, read-out: Plant response rating, Ragweed

Structure (SMILES) | Plant response rating, Sedge, Umbrella ([4]; 62 g ai/ha) | Plant response rating, Sedge, Umbrella ([4]; 125 g ai/ha) | Plant response rating, Sedge, Umbrella ([4]; 250 g ai/ha) | Plant response rating, Sedge, Umbrella ([4]; 500 g ai/ha) | Plant response rating, Barnyardgrass ([5]; 62 g ai/ha, scale 0 to 100) | Plant response rating, Barnyardgrass ([5]; 125 g ai/ha, scale 0 to 100) | Plant response rating, Barnyardgrass ([5]; 250 g ai/ha, scale 0 to 100) | Plant response rating, Barnyardgrass [5, 16] | Plant response rating, Rice ([6]; 62 g ai/ha) | Plant response rating, Rice ([6]; 125 g ai/ha) | Plant response rating, Rice ([6]; 250 g ai/ha) | Plant response rating, Rice ([6]; 500 g ai/ha) | Plant response rating, Ducksalad ([7]; 62 g ai/ha) | Plant response rating, Ducksalad ([7]; 125 g ai/ha) | Plant response rating, Ducksalad ([7]; 250 g ai/ha) | Plant response rating, Ducksalad ([7]; 500 g ai/ha) | pest or weed control at 62 g/ha [1, 17] [%] | pest or weed control at 125 g/ha [1, 18] [%] | pest or weed control at 250 g/ha [1, 19] [%] | pest or weed control at 500 g/ha [1, 20] [%] | further results
CCCOC(=O)c1nc(C2CC2)nc(N)c1Br [Compound 15] | 0 | 0 | 10 | 25 | 0 | 0 | 25 | 75 | 0 | 0 | 20 | 50 | 45 | 45 | 50 | 85 |  |  |  |  | Bermudagrass plant response rating [1, 8]: 0; Plant response rating, Bermudagrass [1, 9]: 65; Plant response rating, Bermudagrass [1, 10]: 75; Plant response rating, Bermudagrass ([1]; Postemergence, 125 g ai/ha, scale 0 to 100): 45; Plant response rating, Bermudagrass [1, 11]: 0; Plant response rating, Bermudagrass [1, 12]: 0; Plant response rating, Bermudagrass [1, 13]: 0; Plant response rating, Bermudagrass [1, 14]: 70; Plant response rating, Nightshade [2, 15]: 95; Plant response rating, Nightshade ([2]; 125 g ai/ha, scale 0 to 100): 100; Plant response rating, Nightshade ([2]; 250 g ai/ha, scale 0 to 100): 100; Plant response rating, Nightshade ([2]; 500 g ai/ha, scale 0 to 100): 100; Ragweed plant response rating [3, 8]: 75; Ragweed plant response rating ([3]; Postemergence, 125 g ai/ha, scale 0 to 100 (0 no effect, 100 complete control)): 85; Plant response rating, Ragweed [3, 9]: 90; Plant response rating, Ragweed [3, 10]: 95; Plant response rating, Ragweed [3, 11]: 90; Plant response rating, Ragweed [3, 12]: 95; Plant response rating, Ragweed [3, 13]: 100; Plant response rating, Ragweed [3, 14]: 100
Nc1nc(C2CC2)nc(C=O)c1Br [Compound 26] | 0 | 0 | 20 | 20 | 0 | 0 | 0 | 0 | 0 | 0 | 20 | 25 | 40 | 40 | 40 | 40 | 0 | 0 | 0 | 0 | pest or weed control at 62 g/ha [2, 15]: 10%; pest or weed control at 125 g/ha ([2]; 125 g ai/ha, scale 0 to 100): 100%; pest or weed control at 250 g/ha ([2]; 250 g ai/ha, scale 0 to 100): 100%; pest or weed control at 500 g/ha ([2]; 500 g ai/ha, scale 0 to 100): 100%; pest or weed control at 62 g/ha [3, 21]: 0%; pest or weed control at 125 g/ha [3, 22]: 10%; pest or weed control at 250 g/ha [3, 23]: 85%; pest or weed control at 500 g/ha [3, 24]: 90%
CNc1nc(C2CC2)nc(C(=O)OC)c1Br [Compound 5] | 0 | 0 | 0 | 0 | 0 | 0 | 0 | 20 | 0 | 0 | 0 | 0 | 0 | 0 | 0 | 0 | 0 | 0 | 30 | 70 | pest or weed control at 62 g/ha [1, 25]: 5%; pest or weed control at 125 g/ha ([1]; post-emergence, Postemergence, 125 g ai/ha, scale 0 to 100, read-out: Plant response rating, Bermudagrass): 50%; pest or weed control at 250 g/ha [1, 26]: 70%; pest or weed control at 500 g/ha [1, 27]: 80%; pest or weed control at 62 g/ha [2, 15]: 100%; pest or weed control at 125 g/ha ([2]; 125 g ai/ha, scale 0 to 100): 100%; pest or weed control at 250 g/ha ([2]; 250 g ai/ha, scale 0 to 100): 100%; pest or weed control at 500 g/ha ([2]; 500 g ai/ha, scale 0 to 100): 100%; pest or weed control at 62 g/ha [3, 28]: 90%; pest or weed control at 125 g/ha [3, 29]: 95%; pest or weed control at 250 g/ha [3, 30]: 95%; pest or weed control at 500 g/ha [3, 31]: 100%; pest or weed control at 62 g/ha [3, 21]: 85%; pest or weed control at 125 g/ha [3, 22]: 90%; pest or weed control at 250 g/ha [3, 23]: 100%; pest or weed control at 500 g/ha [3, 24]: 100%
Nc1nc(C2CC2)nc(C(=O)OCc2ccccc2)c1Br [Compound 22, phenylmethyl 6-amino-5-bromo-2-cyclopropyl-4-pyrimidinecarboxylate] | 0 | 30 | 75 | 95 | 0 | 0 | 40 | 70 | 20 | 20 | 40 | 60 | 30 | 60 | 90 | 95 | 0 | 50 | 50 | 90 | pest or weed control at 62 g/ha [1, 25]: 50%; pest or weed control at 125 g/ha ([1]; post-emergence, Postemergence, 125 g ai/ha, scale 0 to 100 (0 no effect, 100 complete control), read-out: Bermudagrass plant response rating): 60%; pest or weed control at 250 g/ha [1, 26]: 60%; pest or weed control at 500 g/ha [1, 27]: 60%; pest or weed control at 62 g/ha [2, 15]: 100%; pest or weed control at 125 g/ha ([2]; 125 g ai/ha, scale 0 to 100): 100%; pest or weed control at 250 g/ha ([2]; 250 g ai/ha, scale 0 to 100): 100%; pest or weed control at 500 g/ha ([2]; 500 g ai/ha, scale 0 to 100): 100%; pest or weed control at 62 g/ha [3, 28]: 80%; pest or weed control at 125 g/ha [3, 29]: 85%; pest or weed control at 250 g/ha [3, 30]: 90%; pest or weed control at 500 g/ha [3, 31]: 90%; pest or weed control at 62 g/ha [3, 21]: 90%; pest or weed control at 125 g/ha [3, 22]: 100%; pest or weed control at 250 g/ha [3, 23]: 100%; pest or weed control at 500 g/ha [3, 24]: 100%
